# How the values were obtained:
# [1] = target: T1, Cathepsin D (Cat D) (Homo sapiens, UniProt P07339); assay: In vitro enzymatic Cathepsin D (Cat D) FRET assay; assay type: biochemical; settings: read-out: CatD IC50
# T1 construct: Recombinant Cat D was expressed in CHO cells; made in house; host or cells: CHO cells
# How it was run: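 Recombinant Cat D expressed in CHO cells, used at 9 nM and pre-incubated one hour with serially diluted inhibitor in DMSO. Peptide substrate carries a fluorophore and quencher flanking the cleavage site; reaction stopped with Tris buffer raising pH to neutrality, then fluorescence read.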
# [2] = target: Beta Secretase enzyme (BACE1) (Homo sapiens, UniProt P56817); assay: In vitro enzymatic BACE FRET assay; assay type: biochemical; settings: average IC50, enzyme assay; read-out: BACE1 FRET assay IC50
# Beta Secretase enzyme (BACE1), sequence (P56817 46-501): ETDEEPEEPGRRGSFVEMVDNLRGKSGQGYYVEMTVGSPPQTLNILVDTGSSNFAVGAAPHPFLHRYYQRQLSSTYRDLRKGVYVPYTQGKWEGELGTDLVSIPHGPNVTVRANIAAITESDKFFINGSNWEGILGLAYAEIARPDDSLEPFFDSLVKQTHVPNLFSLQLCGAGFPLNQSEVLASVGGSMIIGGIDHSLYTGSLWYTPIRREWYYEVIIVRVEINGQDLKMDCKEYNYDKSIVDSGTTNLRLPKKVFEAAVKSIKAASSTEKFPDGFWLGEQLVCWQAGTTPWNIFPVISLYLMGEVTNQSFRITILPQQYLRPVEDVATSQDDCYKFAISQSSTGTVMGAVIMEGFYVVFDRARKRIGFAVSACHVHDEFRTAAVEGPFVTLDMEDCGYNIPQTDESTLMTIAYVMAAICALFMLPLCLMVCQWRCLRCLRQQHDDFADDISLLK
# How it was run: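 BACE1 cleavage of a 50 nM fluorophore/quencher peptide FRET substrate ran for one hour in 0.05 M acetate pH 4.2, 10% DMSO, 100 uM genapol. Tris buffer raised pH to neutrality to stop the reaction before fluorescence was read (excitation 488 nm, […]).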
# [3] = system: Aβ40 in conditioned medium of cells stably expressing Amyloid Precursor Protein (APP); assay: In vitro BACE cell-based assay (HEK cell assay), Aβ40 sandwich ELISA; settings: Homo sapiens, HEK293; average IC50, HEK cell assay
# How it was run: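 APP-stably expressing cells (40K/well, grown 24 h in DMEM/10% FBS) were treated 24 h with compounds in 10-point dose response starting at 100 μM or 10 μM, 0.1% DMSO final. Secreted Aβ40 was measured by sandwich ELISA (pAb40 capture, biotinylated 6E10 detection, europium time-resolved fluorescence); IC50 from percent inhibition.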
# T1 sequence (P07339 65-412, species assumed): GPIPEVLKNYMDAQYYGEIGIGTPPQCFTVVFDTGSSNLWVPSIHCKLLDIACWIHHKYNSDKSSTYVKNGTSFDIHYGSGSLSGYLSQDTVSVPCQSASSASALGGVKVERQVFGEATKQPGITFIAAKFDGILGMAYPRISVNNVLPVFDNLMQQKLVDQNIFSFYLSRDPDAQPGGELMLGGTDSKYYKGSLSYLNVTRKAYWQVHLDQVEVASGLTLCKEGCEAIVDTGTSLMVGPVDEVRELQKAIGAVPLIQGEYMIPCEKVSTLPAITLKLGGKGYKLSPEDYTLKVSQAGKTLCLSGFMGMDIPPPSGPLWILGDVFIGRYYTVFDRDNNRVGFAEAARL
Compound,IC50 [1],IC50 [2],IC50 [3]
"CC1(C)C(N)=N[C@](C)(c2cc(NC(=O)c3ncc(Cl)cc3F)ccc2F)C(F)S1(=O)=O (stereo partly drawn) [Example 329, N-(3-((3R)-5-amino-2-fluoro-3,6,6-trimethyl-1,1-dioxido-3,6-dihydro-2H-1,4-thiazin-3-yl)-4-fluorophenyl)-5-chloro-3-fluoro-2-pyridinecarboxamide]",> 400000 nM,0.47 nM,5.8 nM
"CC1(C)C(N)=N[C@](C)(c2cc(NC(=O)c3ccc(C(F)F)cn3)ccc2F)C(F)S1(=O)=O (stereo partly drawn) [Example 334, N-(3-((3R)-5-amino-2-fluoro-3,6,6-trimethyl-1,1-dioxido-3,6-dihydro-2H-1,4-thiazin-3-yl)-4-fluorophenyl)-5-(difluoromethyl)-2-pyridinecarboxamide]",307000 nM,2.4 nM,5.5 nM
"COCc1cc(Cl)cnc1C(=O)Nc1ccc(F)c([C@@]2(C)N=C(N)C(C)(C)S(=O)(=O)C2F)c1 (stereo partly drawn) [Example 335, N-(3-((3R)-5-amino-2-fluoro-3,6,6-trimethyl-1,1-dioxido-3,6-dihydro-2H-1,4-thiazin-3-yl)-4-fluorophenyl)-5-chloro-3-(methoxymethyl)-2-pyridinecarboxamide]",311000 nM,0.56 nM,6.8 nM
"COc1cnc(C(=O)Nc2ccc(F)c([C@@]3(C)N=C(N)C(C)(C)S(=O)(=O)C3F)c2)c(Cl)c1 (stereo partly drawn) [Example 336, N-(3-((3R)-5-amino-2-fluoro-3,6,6-trimethyl-1,1-dioxido-3,6-dihydro-2H-1,4-thiazin-3-yl)-4-fluorophenyl)-3-chloro-5-methoxy-2-pyridinecarboxamide]",533000 nM,1.4 nM,5.3 nM
"COc1cnc(C(=O)Nc2ccc(F)c([C@@]3(C)N=C(N)C(C)(C)S(=O)(=O)C3F)c2)c(C)c1 (stereo partly drawn) [Example 337, N-(3-((3R)-5-amino-2-fluoro-3,6,6-trimethyl-1,1-dioxido-3,6-dihydro-2H-1,4-thiazin-3-yl)-4-fluorophenyl)-5-methoxy-3-methyl-2-pyridinecarboxamide]",233000 nM,3.13 nM,9.7 nM
"CC1(C)C(N)=N[C@](C)(c2cc(NC(=O)c3cc4ccccc4cn3)ccc2F)CS1(=O)=O [Example 343, N-(3-((3R)-5-amino-3,6,6-trimethyl-1,1-dioxido-3,6-dihydro-2H-1,4-thiazin-3-yl)-4-fluorophenyl)-3-isoquinolinecarboxamide]",234000 nM,5.11 nM,10.7 nM
"CC1(C)C(N)=N[C@](C)(c2cc(NC(=O)c3cnc(OC(F)F)cn3)ccc2F)CS1(=O)=O [Example 344, N-(3-((3R)-5-amino-3,6,6-trimethyl-1,1-dioxido-3,6-dihydro-2H-1,4-thiazin-3-yl)-4-fluorophenyl)-5-(difluoromethoxy)-2-pyrazinecarboxamide]",388000 nM,0.53 nM,0.4 nM
"CC1(C)C(N)=N[C@](C)(c2cc(NC(=O)c3cnc(OCC(F)(F)F)cn3)ccc2F)CS1(=O)=O [Example 346, N-(3-((3R)-5-amino-3,6,6-trimethyl-1,1-dioxido-3,6-dihydro-2H-1,4-thiazin-3-yl)-4-fluorophenyl)-5-(2,2,2-trifluoroethoxy)-2-pyrazinecarboxamide]",> 400000 nM,0.45 nM,1.4 nM

# These reach a lower IC50 [1]. Values come first.
IC50 [1],IC50 [2],IC50 [3],Compound
136000 nM,0.75 nM,4.1 nM,"Cc1cc(OC(F)F)cnc1C(=O)Nc1ccc(F)c([C@@]2(C)N=C(N)C(C)(C)S(=O)(=O)C2F)c1 (stereo partly drawn) [Example 330, N-(3-((3R)-5-amino-2-fluoro-3,6,6-trimethyl-1,1-dioxido-3,6-dihydro-2H-1,4-thiazin-3-yl)-4-fluorophenyl)-5-(difluoromethoxy)-3-methyl-2-pyridinecarboxamide]"
188000 nM,0.3 nM,4.8 nM,"Cc1cc(Cl)cnc1C(=O)Nc1ccc(F)c([C@@]2(C)N=C(N)C(C)(C)S(=O)(=O)C2F)c1 (stereo partly drawn) [Example 331, N-(3-((3R)-5-amino-2-fluoro-3,6,6-trimethyl-1,1-dioxido-3,6-dihydro-2H-1,4-thiazin-3-yl)-4-fluorophenyl)-5-chloro-3-methyl-2-pyridinecarboxamide]"
44900 nM,0.23 nM,1 nM,"CC#CCOc1cnc(C(=O)Nc2ccc(F)c([C@@]3(C)N=C(N)C(C)(C)S(=O)(=O)C3F)c2)cn1 (stereo partly drawn) [Example 332, N-(3-((3R)-5-amino-2-fluoro-3,6,6-trimethyl-1,1-dioxido-3,6-dihydro-2H-1,4-thiazin-3-yl)-4-fluorophenyl)-5-(2-butyn-1-yloxy)-2-pyrazinecarboxamide]"
190000 nM,1.5 nM,16 nM,"CC1(C)C(N)=N[C@](C)(c2cc(NC(=O)c3cnc(OCC(F)(F)F)cn3)ccc2F)C(F)S1(=O)=O (stereo partly drawn) [Example 333, N-(3-((3R)-5-amino-2-fluoro-3,6,6-trimethyl-1,1-dioxido-3,6-dihydro-2H-1,4-thiazin-3-yl)-4-fluorophenyl)-5-(2,2,2-trifluoroethoxy)-2-pyrazinecarboxamide]"
109000 nM,18.1 nM,196 nM,"CC1[C@@](C)(c2cc(NC(=O)c3ccc(Cl)cn3)ccc2F)N=C(N)[C@](C)(F)S1(=O)=O (stereo partly drawn) [Example 339, N-(3-((3R,6R)-5-amino-6-fluoro-2,3,6-trimethyl-1,1-dioxido-3,6-dihydro-2H-1,4-thiazin-3-yl)-4-fluorophenyl)-5-chloro-2-pyridinecarboxamide]"
20000 nM,5.1 nM,4.4 nM,"Cc1cc(Cl)cnc1C(=O)Nc1ccc(F)c([C@@]2(C)N=C(N)C(C)(C)S(=O)(=O)C23CC3)c1 [Example 340, N-(3-((8R)-6-amino-5,5,8-trimethyl-4,4-dioxido-4-thia-7-azaspiro[2.5]oct-6-en-8-yl)-4-fluorophenyl)-5-chloro-3-methyl-2-pyridinecarboxamide]"
9400 nM,5.99 nM,2.4 nM,"Cc1cc(OC(F)F)cnc1C(=O)Nc1ccc(F)c([C@@]2(C)N=C(N)C(C)(C)S(=O)(=O)C23CC3)c1 [Example 341, N-(3-((8R)-6-amino-5,5,8-trimethyl-4,4-dioxido-4-thia-7-azaspiro[2.5]oct-6-en-8-yl)-4-fluorophenyl)-5-(difluoromethoxy)-3-methyl-2-pyridinecarboxamide]"
113000 nM,0.61 nM,0.7 nM,"CC1(C)C(N)=N[C@](C)(c2cc(NC(=O)c3ccc(C(F)(F)F)cn3)ccc2F)CS1(=O)=O [Example 342, N-(3-((3R)-5-amino-3,6,6-trimethyl-1,1-dioxido-3,6-dihydro-2H-1,4-thiazin-3-yl)-4-fluorophenyl)-5-(trifluoromethyl)-2-pyridinecarboxamide]"
75600 nM,31.3 nM,71.3 nM,"COc1cc(Cl)ccc1C(=O)Nc1ccc(F)c([C@]2(C)CS(=O)(=O)C(C)(C)C(N)=N2)c1 [Example 345, N-(3-((3R)-5-amino-3,6,6-trimethyl-1,1-dioxido-3,6-dihydro-2H-1,4-thiazin-3-yl)-4-fluorophenyl)-4-chloro-2-methoxybenzamide]"
71000 nM,1.1 nM,1.8 nM,"Cc1cc(Cl)cnc1C(=O)Nc1cnc(F)c([C@]2(C)CS(=O)(=O)C(C)(C)C(N)=N2)c1 [Example 347, N-(5-((3R)-5-amino-3,6,6-trimethyl-1,1-dioxido-3,6-dihydro-2H-1,4-thiazin-3-yl)-6-fluoro-3-pyridinyl)-5-chloro-3-methyl-2-pyridinecarboxamide]"

# — patent US20140107109A1, “AMINO-DIHYDROTHIAZINE AND AMINO-DIOXIDO DIHYDROTHIAZINE COMPOUNDS AS BETA-SECRETASE ANTAGONISTS AND METHODS OF USE” (Amgen Inc., priority 2012, published 2014)
